Data on twelve compounds can be found in patent publication US5013850A, “4-ethyl and 4-ethenyl-5-hydroxy-2(5H)-furanones substituted on alpha carbon of the ethyl or ethenyl side chain with a long chain alkyl group and on the beta carbon with a polar group, as anti-inflammatory agents” (Allergan, Inc., priority 1990, dated 1991).

The structures appear in SMILES notation. Where only a bound is given, the exact number is not on record here.

The target in one assay is bee venom phospholipase A2 (Apis mellifera, UniProt P00630). Kind of assay: biochemical. To be noted: read-out: IC50, Phospholipase A2 Assay (50% inhibition of bee venom phospholipase A2).
Sequence of bee venom phospholipase A2 (P00630 34-167 limits assumed): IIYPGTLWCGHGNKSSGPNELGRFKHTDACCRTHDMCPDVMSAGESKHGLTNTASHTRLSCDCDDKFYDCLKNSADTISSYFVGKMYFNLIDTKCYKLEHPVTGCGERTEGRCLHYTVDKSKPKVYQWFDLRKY
On to `CCCCCCCCCCCCC(CC(=O)O)C1=CC(=O)OC1O` (centres unmarked) [Compound 12, 4-[1-(Carboxymethyl)tridecyl]-5-hydroxy-2(5H)-furanone], for which the 50% inhibitory concentration (IC50) was found to be 130 nM.
Turning to `CCCCCCCCCCCCC(CC(=O)OCC)C1=CC(=O)OC1O` (centres unmarked) [Compound 7, 4-[1-(Ethoxycarbonylmethyl)tridecyl]-5-hydroxy-2(5H)-furanone], the IC50 was determined as 260 nM.
On to `CCCCCCCCCCCCC(CC(C)=O)C1=CC(=O)OC1O` (centres unmarked) [Compound 8, 4-[1-(2-oxopropyl)tridecyl]-5-hydroxy-2(5H)-furanone], for which the IC50 amounted to 90 nM.
On to `CCCCCCCCCCCCC(CC(=O)C(F)(F)F)C1=CC(=O)OC1O` (centres unmarked) [Compound 9, 4-[1-(3,3,3-Trifluoro-2-oxo)propyl]tridecyl-5-hydroxy-2(5H)-furanone], for which the IC50 is 420 nM.
With `CCCCCCCCCCCCC(=CP(=O)(OCC)OCC)C1=CC(=O)OC1O` (centres unmarked) [Compound 24, 4-[(1-Dodecyl-2-diethylphosphonyl)-1-ethenyl]-5-hydroxy-2(5H)-furanone], the IC50 turned out to be 80 nM.
Same read-out and setting: to `CCCCCCCCCCCCC(C1=CC(=O)OC1O)C(C(=O)OC)C(=O)OC` (centres unmarked) [Compound 11, 4-[-(1,1-Bis(carbomethoxy)methyl)tridecyl]-5-hydroxy-2(5H)-furanone] belongs 80 nM; to `CCCCCCCCCCCCC(=CC(=O)C(F)(F)F)C1=CC(=O)OC1O` (centres unmarked) [Compound 23, (E),(Z)-4-[(1-Dodecyl-3-oxo-4,4,4-trifluoro)-1-butenyl]-5-hydroxy-2(5H)-furanone], 40 nM.
On the same count and under the same terms, to `CC(=CCCC1=CCC(C2=CC(=O)OC2O)OC1O)CCC1=C(C)CCCC1(C)C` (centres unmarked) [Compound 1] belongs 30 nM.
On to `CCCCCCCCCCCCC(CP(=O)(OCC)OCC)C1=CC(=O)OC1O` (centres unmarked) [Compound 13, 4-[1-(diethylphosphonyl)methyl]tridecyl-5-hydroxy-2(5H)-furanone], for which the IC50 was 100 nM.
As to `CCCCCCCCCCCCC(CC(C)(C)O)C1=CC(=O)OC1O` (centres unmarked) [Compound 10, 4-[1-(2-Hydroxy-2-methylpropyl)tridecyl]-5-hydroxy-2(5H)-furanone], the half-inhibitory concentration (IC50) is > 1000 nM.

Another assay concerns phosphoinositide-specific phospholipase C.
Assay: not given
To be noted: Bennett et al, Molecular Pharmacology 32:587-593 (1987); cited from earlier work.
As to `CC(=CCCC1=CCC(C2=CC(=O)OC2O)OC1O)CCC1=C(C)CCCC1(C)C` (centres unmarked) [Compound 1], the “inhibition of phosphoinositide-specific phospholipase C” value was “This activity has been reported for manoalide”.

Tested on in another assay: not given
Assay: not given
To be noted: U.S. Pat. No. 4,447,445; European Patent Application No. 0133376; cited from earlier work.
Consider `CC(=CCCC(C=O)=CCC(O)C1=CC(=O)OC1O)CCC1=C(C)CCCC1(C)C` (centres unmarked) [Compound 2], for which the biological activity entry was “anti-inflammatory inflammatory activity”.
`CC(=CCCC(C=O)=CC=CC1=CC(=O)OC1O)CCC1=C(C)CCCC1(C)C` (centres unmarked) [Compound 3]: the biological activity result was “anti-inflammatory inflammatory activity”.
On to `CC(=CCCC1=CCC(C2=CC(=O)OC2O)OC1O)CCC1=C(C)CCCC1(C)C` (centres unmarked) [Compound 1], for which the biological activity entry was “anti-inflammatory, immunosuppressive and analgesic properties”.
